Assay results published in US11643417B2, “Tetrahydrobenzofurodiazepinone compound and pharmaceutical use thereof” (priority 2020, dated 2023).

Molecular target: human Pim-1 (Homo sapiens (Human), UniProt P11309)
Experiment: biochemical
Type: biochemical
Settings: Ki converted from IC50; purified human Pim-1, Pim2tide substrate, ADP-Glo; read-out: hPim1 Ki
Experimental: The human Pim-1 inhibitory activity of the test compounds was evaluated as follows.
(1) Purification of Human Pim-1
DNA fragment in which a His-Tag sequence and a translation termination sequence are added to the 3′-end of human Pim-1 translation sequence was amplified by PCR (Polymerase Chain Reaction), using human Pim-1 gene-inserted plasmid DNA (Kazusa DNA Laboratory, model number FXC11400) as a template. The amplified DNA fragment was fused with pGEx-6P-1 (GE Healthcare Japan, model number 27-4597-1) digested with BamHI and EcoRI using In-Fusion HD Cloning Kit (Takara Bio, model number 639649). […] The base sequence of Pim-1 cloned into vector was determined by Dye Terminator method using BigDye Terminator v3.1 Cycle Sequencing Kit (Applied Biosystems, model number 4337456). […] Escherichia coli BL21 (DE3) (Merck KGaA, model number 69449-4) transformed with human Pim-1-expressed plasmid DNA was cultured in 2×YT medium (Becton Dickinson, model number 2404020) at 30° C., until the optical concentration at 620 nm (OD620) reached 0.6, and then cultured overnight at 20° C. in the presence of 0.5 mmol/L isopropyl b-D-1-thiogalactopyranoside. After the completion of so the culture, the cells were collected and suspended in Homogenate Buffer (50 mmol/L Tris-HCl (pH 7.5), 500 mmol/L NaCl, 1% Tween20, complete, EDTA-free (Roche, model number 1873580)), and the suspended cells were lysed by passing through a microfluidizer M-110H (Mizuho Kogyo Co., Ltd.). The lysate was centrifuged at 10,100×g for 10 minutes, 4° C., and the supernatant was filtered through MILLEX-HV Filter (0.45 μm) (Millipore, SLHV033RS) to remove the cell residues. The filtrate was loaded onto complete His-Tag Purification Resin (Roche Diagnostics, model number 05 893 682 0.01). The column was washed with Equilibration Buffer-1 (50 mmol/L Tris-HCl (pH 7.5), 500 mmol/L NaCl, 1% Tween 20) containing 5 mmol/L Imidazole, followed by Equilibration Buffer-1 containing 50 mmol/L Imidazole, the human Pim-1 to which GST-Tag derived from pGEx-6P-1 was eluted with Equilibration Buffer-1 containing 150 mmol/L imidazole. […] The protease reaction was carried out by stirring overnight at 4° C., and the human Pim-1 in which the GST-Tag sequence was cleaved was eluted. The eluate was loaded onto a gel filtration column (Superdex-200 […] (GE Healthcare, model number 17-5175-01)) equilibrated with Equilibration Buffer-3 (50 mmol/L Tris-HCl (pH 7.5), 500 mmol/L NaCl, 0.05% Tween20, 0.5 mmol/L EDTA, 2 mmol/L DTT, 10% Glycerol), and eluted. The eluate was used as a human Pim-1 purified fraction.
The protein concentration of the human Pim-1 purified fraction was measured with Pierce 660 nm Protein Assay Reagent (Thermo Fisher Scientific, model number 22660). The purified fraction was rapidly frozen in liquid nitrogen, and then stored at −80° C. The His-Tag-added human Pim-1 was detected by Western blotting using a mouse anti-His monoclonal antibody (WAKO, model number 011-23091).
(2) Evaluation of Human Pim-1 Inhibitory Activity
The calculation of the Pim-1 inhibitory activity of the compound was performed using the following solution according to the protocol attached to ADP-Glo Kinase Assay (cat. V9102, Promega). The purified enzyme of human Pim-1 described above was used.
(i) Preparation of Solution
The kinase buffer solution (50 mmol/L HEPES (pH 7.5), 5 mmol/L MgCl2, 1 mmol/L DTT, 0.05% BSA) was prepared by dissolving HEPES (Jena Bioscience), MgCl2 (Sigma-Aldrich), DTT (Sigma-Aldrich) and BSA (Sigma-Aldrich) in purified water.
The ATP solution (288 μmol/L) was prepared by dissolving 100 mmol/L ATP (Promega) in the kinase buffer solution.

Sequence of human Pim-1 (P11309 whole entry): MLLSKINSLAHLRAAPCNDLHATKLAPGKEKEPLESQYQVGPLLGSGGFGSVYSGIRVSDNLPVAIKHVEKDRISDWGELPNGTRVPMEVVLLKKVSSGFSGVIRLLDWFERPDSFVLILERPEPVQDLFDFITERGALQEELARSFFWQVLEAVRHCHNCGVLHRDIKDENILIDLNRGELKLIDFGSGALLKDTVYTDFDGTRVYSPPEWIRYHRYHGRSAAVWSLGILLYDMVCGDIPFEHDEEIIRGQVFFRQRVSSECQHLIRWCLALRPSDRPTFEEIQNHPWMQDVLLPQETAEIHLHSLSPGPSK

Row | SMILES | Ki [nM]
1 | O=C1NCCN(CC[C@H]2CC[C@](O)(CO)CC2)c2c1oc1ccc(C(F)(F)F)cc21 [Example 90, 1-(2-((1s,4s)-4-hydroxy-4-(hydroxymethyl)cyclohexyl)ethyl)-9-(trifluoromethyl)-1,2,3,4-tetrahydro-5H-benzofuro[3,2-e][1,4]diazepin-5-one] | 0.0091
2 | CC1(C(=O)O)CCC(CCN2CCNC(=O)c3oc4ccc(C(F)(F)F)cc4c32)CC1 (centres unmarked) [Example 93] | 5.15
3 | CC1(CO)CCC(CCN2CCNC(=O)c3oc4ccc(C(F)(F)F)cc4c32)CC1 (centres unmarked) [Example 94] | 0.129
4 | O=C1NCCN(CC(F)(F)[C@H]2CO[C@H](CO)CO2)c2c1oc1ccc(C(F)(F)F)cc21 [Example 95, 1-(2,2-difluoro-2-((2R,5R)-5-(hydroxymethyl)-1,4-dioxan-2-yl)ethyl)-9-(trifluoromethyl)-1,2,3,4-tetrahydro-5H-benzofuro[3,2-e][1,4]diazepin-5-one] | 0.0443
5 | O=C1NCCN(CC(F)(F)[C@H]2CO[C@@H](CO)CO2)c2c1oc1ccc(C(F)(F)F)cc21 [Example 96] | 0.0283
6 | O=C1NCCN(CCC2CCC(CO)CC2)c2c1oc1ccc(C(F)(F)F)cc21 (centres unmarked) [Example 97] | 0.107
7 | CC(C)(O)C1CCC(CCN2CCNC(=O)c3oc4ccc(C(F)(F)F)cc4c32)CC1 (centres unmarked) [Example 98] | 1.07
8 | CNC(=O)C1CCC(CCN2CCNC(=O)c3oc4ccc(C(F)(F)F)cc4c32)CC1 (centres unmarked) [Example 100] | 1
9 | CN(C)C(=O)C1CCC(CCN2CCNC(=O)c3oc4ccc(C(F)(F)F)cc4c32)CC1 (centres unmarked) [Example 101] | 0.775
10 | O=C1NCCN(CCC2CCC(O)(C(=O)O)CC2)c2c1oc1ccc(C(F)(F)F)cc21 (centres unmarked) [Example 102] | 5.47
11 | NC(=O)C1CCC(CCN2CCNC(=O)c3oc4ccc(C(F)(F)F)cc4c32)CC1 (centres unmarked) [Example 104] | 0.819
12 | O=C1NCCN(CCC2CCC(c3ncn[nH]3)CC2)c2c1oc1ccc(C(F)(F)F)cc21 (centres unmarked) [Example 105] | 0.607
13 | O=C1NCCN(CC(F)(F)[C@H]2CC[C@H](O)CC2)c2c1oc1ccc(C(F)(F)F)cc21 [Example 106, 1-(2,2-difluoro-2-((1r,4r)-4-hydroxycyclohexyl)ethyl)-9-(trifluoromethyl)-1,2,3,4-tetrahydro-5H-benzofuro[3,2-e][1,4]diazepin-5-one] | 0.0409
14 | O=C1NCCN(CC(F)(F)C2CCC(O)CC2)c2c1oc1ccc(C(F)(F)F)cc21 (centres unmarked) [Example 107, 1-(2,2-difluoro-2-(4-hydroxycyclohexyl)ethyl)-9-(trifluoromethyl)-1,2,3,4-tetrahydro-5H-benzofuro[3,2-e] [1,4]diazepin-5-one] | 0.0862
15 | O=C1NCCN(CC[C@H]2CC[C@](O)(CCO)CC2)c2c1oc1ccc(C(F)(F)F)cc21 [Example 108] | 0.298
16 | O=C1NCCN(CC[C@H]2CC[C@@](O)(CCO)CC2)c2c1oc1ccc(C(F)(F)F)cc21 [Example 109] | 0.193
17 | O=C1NCCN(CCC2CCC(C3(O)CC3)CC2)c2c1oc1ccc(C(F)(F)F)cc21 (centres unmarked) [Example 110] | 0.133
18 | O=C1NCCN(CCC2CCC(O)(C3(O)CC3)CC2)c2c1oc1ccc(C(F)(F)F)cc21 (centres unmarked) [Example 111] | 0.011
19 | COCC1(O)CCC(CCN2CCNC(=O)c3oc4ccc(C(F)(F)F)cc4c32)CC1 (centres unmarked) [Example 112] | 1.03
20 | O=C1NCCN(CCC23CC(CO)(C2)C3)c2c1oc1ccc(C(F)(F)F)cc21 [Example 113] | 0.726
21 | O=C1NCCN(CCC2CC(CO)C2)c2c1oc1ccc(C(F)(F)F)cc21 (centres unmarked) [Example 117] | 0.801
22 | O=C1NCCN(CC(F)(F)C2CCC(O)(CO)CC2)c2c1oc1ccc(C(F)(F)F)cc21 (centres unmarked) [Example 120] | 0.006
23 | N#CCC1(O)CCC(CCN2CCNC(=O)c3oc4ccc(C(F)(F)F)cc4c32)CC1 (centres unmarked) [Example 121] | 0.705

Row | SMILES | Ki [nM]
24 | CS(=O)(=O)CC1(O)CCC(CCN2CCNC(=O)c3oc4ccc(C(F)(F)F)cc4c32)CC1 (centres unmarked) [Example 122] | 0.532
25 | CS(=O)(=O)C1CCC(CCN2CCNC(=O)c3oc4ccc(C(F)(F)F)cc4c32)CC1 (centres unmarked) [Example 123] | 0.784
26 | O=C1NC2(CC2)CN(CCC2CCC(O)CC2)c2c1oc1ccc(C(F)(F)F)cc21 (centres unmarked) [Example 126] | 0.464
27 | O=C1NCCN(CC(F)(F)C2CCC(CO)CC2)c2c1oc1ccc(C(F)(F)F)cc21 (centres unmarked) [Example 138] | 0.0151
28 | O=C1NCCN(CCC2CCC(O)(CF)CC2)c2c1oc1ccc(C(F)(F)F)cc21 (centres unmarked) [Example 144] | 0.801
29 | O=C1NCCN(CCC2CCC(CO)(CO)CC2)c2c1oc1ccc(C(F)(F)F)cc21 [Example 146] | 0.0231
30 | O=C1NC2(CC2)CN(CC(F)(F)[C@H]2CC[C@H](O)CC2)c2c1oc1ccc(C(F)(F)F)cc21 [Example 149] | 0.0337
31 | O=C1NCCN(CCC2CCC(F)(CO)CC2)c2c1oc1ccc(C(F)(F)F)cc21 (centres unmarked) [Example 150] | 0.13
32 | O=C1NCCN(CC(F)(F)C2CC(O)C2)c2c1oc1ccc(C(F)(F)F)cc21 (centres unmarked) [Example 151] | 0.957
33 | O=C1NC2(CC2)CN(CC[C@@H]2CO[C@@H](CO)CO2)c2c1oc1ccc(C(F)(F)F)cc21 [Example 152] | 0.0929
34 | O=C1NC2(CC2)CN(CC[C@@H]2CO[C@H](CO)CO2)c2c1oc1ccc(C(F)(F)F)cc21 [Example 153] | 0.302
35 | O=C1NC2(CC2)CN(CC[C@H]2CO[C@@H](CO)CO2)c2c1oc1ccc(C(F)(F)F)cc21 [Example 154] | 0.302
36 | O=C1NC2(CC2)CN(CC[C@H]2CO[C@H](CO)CO2)c2c1oc1ccc(C(F)(F)F)cc21 [Example 155] | 0.221
37 | O=C1NC2(CC2)CN(CC[C@@H]2CO[C@H](CF)CO2)c2c1oc1ccc(C(F)(F)F)cc21 [Example 156] | 0.0103
38 | O=C1NC2(CC2)CN(CC[C@H]2CO[C@@H](CF)CO2)c2c1oc1ccc(C(F)(F)F)cc21 [Example 157] | 0.234
39 | CS(=O)(=O)C[C@@H]1CO[C@@H](CCN2CC3(CC3)NC(=O)c3oc4ccc(C(F)(F)F)cc4c32)CO1 [Example 159] | 0.164
40 | O=C1NC2(CC2)CN(CC(F)(F)C2CCS(=O)(=O)CC2)c2c1oc1ccc(C(F)(F)F)cc21 [Example 160] | 0.0982
41 | CS(=O)(=O)C[C@H]1CO[C@H](CCN2CC3(CC3)NC(=O)c3oc4ccc(C(F)(F)F)cc4c32)CO1 [Example 161] | 0.188
42 | N#CC1(CO)CCC(CCN2CCNC(=O)c3oc4ccc(C(F)(F)F)cc4c32)CC1 (centres unmarked) [Example 163] | 0.0445
43 | O=C1NC2(CC2)CN(CC(F)(F)[C@H]2CO[C@H](CO)CO2)c2c1oc1ccc(C(F)(F)F)cc21 [Example 164] | 0.0193
44 | O=C1NCCN(CC(F)(F)[C@H]2CC[C@H](O)CC2)c2c1oc1ccc(C(F)(F)F)cc21 [Example 165] | 0.104
45 | O=C1CCC(C(F)(F)CN2CCNC(=O)c3oc4ccc(C(F)(F)F)cc4c32)CC1 [Example 166] | 0.189

Same assay, conditions: hPim1 Ki (nM), Ki converted from IC50; purified human Pim-1, Pim2tide substrate, ADP-Glo

Row | SMILES | Ki [nM]
46 | [2H]C1(O)CCC(CCN2CCNC(=O)c3oc4ccc(C(F)(F)F)cc4c32)CC1 (centres unmarked) [Example 92] | 0.707
47 | O=C1NCCN(CCC2CCC(C3(O)CC3)CC2)c2c1oc1ccc(C(F)(F)F)cc21 (centres unmarked) [Example 99] | 0.0764
48 | O=C1NC2(CC2)CN(CCC2CCC(O)(CO)CC2)c2c1oc1ccc(C(F)(F)F)cc21 (centres unmarked) [Example 116] | 0.0092
49 | O=C1NC2(CC2)CN(CCC2CCC(O)CC2)c2c1oc1ccc(C(F)(F)F)cc21 (centres unmarked) [Example 125] | 0.0592

Same assay, conditions: read-out: hPim1 Ki; Ki converted from IC50; purified human Pim-1, Pim2tide substrate, ADP-Glo

Row | SMILES | Ki [nM]
50 | O=C1NCCN(CCC2CCC(O)(CO)CC2)c2c1oc1ccc(C(F)(F)F)cc21 (centres unmarked) [Example 89] | 0.0329
